Eight molecules from ChEMBL document CHEMBL1140252, “Deoxyribosyl analogues of methionyl and isoleucyl sulfamate adenylates as inhibitors of methionyl-tRNA and isoleucyl-tRNA synthetases” (Bioorg Med Chem Lett, 2005) can be followed below.

Broadly, the IC50 is the midpoint of a concentration-inhibition curve.

The target in the first assay is Methionine--tRNA ligase (Escherichia coli K-12, UniProt P00959). Kind of assay: Inhibitory concentration against Escherichia coli Met-tRNA synthetase.
Sequence of Methionine--tRNA ligase (P00959 whole entry): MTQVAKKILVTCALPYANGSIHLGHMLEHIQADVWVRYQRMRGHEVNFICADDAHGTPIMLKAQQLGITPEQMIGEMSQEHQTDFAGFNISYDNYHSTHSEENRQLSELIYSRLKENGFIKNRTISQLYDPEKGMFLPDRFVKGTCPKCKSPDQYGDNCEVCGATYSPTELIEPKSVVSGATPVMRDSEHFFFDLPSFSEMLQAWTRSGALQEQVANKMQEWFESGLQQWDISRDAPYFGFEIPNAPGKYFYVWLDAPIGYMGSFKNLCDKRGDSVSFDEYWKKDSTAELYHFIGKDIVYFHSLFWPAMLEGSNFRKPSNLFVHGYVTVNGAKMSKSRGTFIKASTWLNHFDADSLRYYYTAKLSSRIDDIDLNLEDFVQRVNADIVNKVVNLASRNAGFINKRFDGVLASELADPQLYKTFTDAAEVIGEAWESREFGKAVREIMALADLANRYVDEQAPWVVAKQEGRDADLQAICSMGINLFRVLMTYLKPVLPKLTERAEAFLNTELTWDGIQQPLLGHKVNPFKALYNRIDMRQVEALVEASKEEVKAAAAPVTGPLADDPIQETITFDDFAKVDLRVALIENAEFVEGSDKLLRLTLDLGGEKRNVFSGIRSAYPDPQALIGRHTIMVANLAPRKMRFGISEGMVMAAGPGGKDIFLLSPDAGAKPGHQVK
The molecule `CSCC[C@H](N)C(=O)NS(=O)(=O)OC[C@@H]1C[C@@H](O)[C@H](n2cnc3c(N)ncnc32)O1` came in with a half-inhibitory concentration (IC50) of 220 µM.
On the same count and under the same terms, as for `CSCC[C@H](N)C(=O)NS(=O)(=O)O[C@@H]1CC[C@H](n2cnc3c(N)nnnc32)O1`, the figure is 0.383 µM; as for `CSCC[C@H](N)C(=O)NS(=O)(=O)OC[C@H]1O[C@@H](n2cnc3c(N)ncnc32)C[C@@H]1O`, 110 µM.
`CSCC[C@H](N)C(=O)NS(=O)(=O)OC[C@H]1O[C@@H](n2cnc3c(N)ncnc32)[C@H](O)[C@@H]1O` gave a half-maximal inhibitory concentration (IC50) of 0.083 µM.

For the next assay, the target named is Isoleucine--tRNA ligase (Escherichia coli K-12, UniProt P00956). Kind of assay: Inhibitory concentration against Escherichia coli Ile-tRNA synthetase.
Sequence of Isoleucine--tRNA ligase (P00956 whole entry): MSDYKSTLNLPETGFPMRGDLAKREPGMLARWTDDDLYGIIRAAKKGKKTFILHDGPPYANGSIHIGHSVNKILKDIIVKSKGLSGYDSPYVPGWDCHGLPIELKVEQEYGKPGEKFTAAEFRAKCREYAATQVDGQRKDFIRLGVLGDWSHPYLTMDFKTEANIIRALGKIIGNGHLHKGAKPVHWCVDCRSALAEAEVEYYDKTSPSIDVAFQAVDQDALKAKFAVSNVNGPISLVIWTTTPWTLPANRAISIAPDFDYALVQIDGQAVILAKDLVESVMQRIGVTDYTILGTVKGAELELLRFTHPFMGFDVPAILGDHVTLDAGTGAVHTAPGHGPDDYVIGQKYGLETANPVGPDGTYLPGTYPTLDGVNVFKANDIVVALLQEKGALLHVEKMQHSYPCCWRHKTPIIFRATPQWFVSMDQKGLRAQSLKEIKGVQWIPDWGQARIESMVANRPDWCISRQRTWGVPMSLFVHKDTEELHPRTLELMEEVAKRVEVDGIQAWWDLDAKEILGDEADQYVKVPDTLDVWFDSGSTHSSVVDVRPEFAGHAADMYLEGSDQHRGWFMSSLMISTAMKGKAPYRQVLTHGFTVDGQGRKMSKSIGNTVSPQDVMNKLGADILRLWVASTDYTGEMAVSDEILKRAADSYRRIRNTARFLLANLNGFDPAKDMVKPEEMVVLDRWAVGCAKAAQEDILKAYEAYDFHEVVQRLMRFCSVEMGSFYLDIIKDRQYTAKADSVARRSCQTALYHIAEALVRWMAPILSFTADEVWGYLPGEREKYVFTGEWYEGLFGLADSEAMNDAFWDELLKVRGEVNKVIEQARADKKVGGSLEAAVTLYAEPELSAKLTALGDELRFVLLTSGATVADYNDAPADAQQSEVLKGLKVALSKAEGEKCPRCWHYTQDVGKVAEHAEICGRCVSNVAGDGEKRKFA
In turn, `CC[C@H](C)[C@H](N)C(=O)NS(=O)(=O)O[C@H]1O[C@@H](n2cnc3c(N)ncnc32)C[C@@H]1O` showed an IC50 of 280 µM.
For the molecule `CC[C@H](C)[C@H](N)C(=O)NS(=O)(=O)OC[C@H]1O[C@@H](n2cnc3c(N)ncnc32)[C@H](O)[C@@H]1O`, the concentration for half-maximal inhibition (IC50) was 0.265 µM.
`CC[C@H](C)[C@H](N)C(=O)NS(=O)(=O)OC[C@@H]1C[C@@H](O)[C@H](n2cnc3c(N)ncnc32)O1` came in with an IC50 of 35 µM.
Same read-out and setting: as for `CC[C@H](C)[C@H](N)C(=O)NS(=O)(=O)OC[C@@H]1CC[C@H](n2cnc3c(N)ncnc32)O1`, the figure is 6.4 µM.
